Measured values taken from ChEMBL document CHEMBL5223109, “The discovery of BMS-737 as a potent, CYP17 lyase-selective inhibitor for the treatment of castration-resistant prostate cancer” (Bioorg Med Chem Lett, 2022).

How the values were obtained:
[1] = Metabolic stability in cynomolgus monkey liver microsome assessed as half-life; type: ADME, Macaca fascicularis; details: liver microsomes
[2] = target: T1, Steroid 17-alpha-hydroxylase/17,20 lyase (Macaca fascicularis, UniProt Q2XVA1); experiment: In vivo inhibition of CYP17A1 in cynomolgus monkey assessed as decrease in testosterone level in blood at 1 mg/kg, po measured upto 24 hrs relative to control; type: functional, organism-based; set-up: scale not given: the % may be the effect or the level left
T1 sequence (Q2XVA1 whole entry): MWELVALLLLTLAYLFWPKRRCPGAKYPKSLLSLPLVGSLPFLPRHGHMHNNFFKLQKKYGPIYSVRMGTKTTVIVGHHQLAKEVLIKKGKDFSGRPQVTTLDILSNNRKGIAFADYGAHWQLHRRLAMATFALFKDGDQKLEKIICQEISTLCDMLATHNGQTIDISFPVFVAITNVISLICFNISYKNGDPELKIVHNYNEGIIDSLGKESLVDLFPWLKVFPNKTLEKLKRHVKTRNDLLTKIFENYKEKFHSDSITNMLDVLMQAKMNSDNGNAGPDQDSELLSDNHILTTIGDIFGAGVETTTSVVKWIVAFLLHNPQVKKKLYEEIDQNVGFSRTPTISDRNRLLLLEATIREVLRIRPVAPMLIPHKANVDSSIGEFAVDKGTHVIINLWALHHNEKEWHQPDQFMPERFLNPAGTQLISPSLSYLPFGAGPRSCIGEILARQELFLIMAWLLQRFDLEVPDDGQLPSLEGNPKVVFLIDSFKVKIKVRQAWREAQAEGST

[3] = target: T1, Steroid 17-alpha-hydroxylase/17,20 lyase; experiment: Inhibition of cynomolgus monkey CYP17A1 hydroxylase activity; type: ADME
[4] = Clearance in cynomolgus monkey at 1 mg/kg, iv; type: ADME, organism-based, Macaca fascicularis; details: in vivo
[5] = Metabolic stability in dog liver microsome assessed as half-life; type: ADME, Canis lupus familiaris; details: liver microsomes
[6] = Oral bioavailability in cynomolgus monkey at 1 mg/kg; type: ADME, organism-based, Macaca fascicularis; details: in vivo
[7] = Inhibition of cynomolgus monkey CYP11B1; type: ADME, Macaca fascicularis
[8] = Inhibition of cynomolgus monkey CYP21A2; type: ADME, Macaca fascicularis
[9] = target: T1, Steroid 17-alpha-hydroxylase/17,20 lyase; experiment: Selectivity ratio of IC50 for inhibition of cynomolgus monkey CYP17A1 hydroxylase activity to IC50 for inhibition of cynomolgus monkey CYP17A1 lyase activity; type: ADME
[10] = Metabolic stability in mouse liver microsome assessed as half-life; type: ADME; details: liver microsomes
[11] = Volume of distribution at steady state in cynomolgus monkey at 1 mg/kg, iv; type: ADME, organism-based, Macaca fascicularis; details: in vivo, read-out: Vdss
Cytochrome P450 2C19 = Cytochrome P450 2C19 (Homo sapiens, UniProt P33261); experiment: Inhibition of recombinant human CYP2C19; type: ADME
Sequence of Cytochrome P450 2C19 (P33261 whole entry): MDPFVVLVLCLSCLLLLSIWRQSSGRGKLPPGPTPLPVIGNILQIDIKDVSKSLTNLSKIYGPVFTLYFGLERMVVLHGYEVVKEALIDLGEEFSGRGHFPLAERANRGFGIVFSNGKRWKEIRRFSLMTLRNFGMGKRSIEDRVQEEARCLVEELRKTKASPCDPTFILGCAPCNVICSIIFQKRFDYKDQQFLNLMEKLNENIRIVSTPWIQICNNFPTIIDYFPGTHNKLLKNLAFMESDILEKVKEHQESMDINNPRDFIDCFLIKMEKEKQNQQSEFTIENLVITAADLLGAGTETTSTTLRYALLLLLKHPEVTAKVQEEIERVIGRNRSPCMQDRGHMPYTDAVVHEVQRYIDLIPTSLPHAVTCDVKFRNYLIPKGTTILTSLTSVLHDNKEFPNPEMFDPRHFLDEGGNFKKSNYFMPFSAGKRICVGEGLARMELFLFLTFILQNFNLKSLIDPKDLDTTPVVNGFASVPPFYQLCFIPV

[12] = Metabolic stability in cynomolgus monkey liver microsomes assessed as parent compound remaining relative to control; type: ADME, Macaca fascicularis, Microsome
[13] = Metabolic stability in mouse liver microsomes assessed as parent compound remaining; type: ADME, Microsome
[14] = Cmax in cynomolgus monkey at 1 mg/kg, po; type: ADME, organism-based, Macaca fascicularis; set-up: dose 1 mg/kg, route po; details: in vivo
Cytochrome P450 1A2 = target: T2, Cytochrome P450 1A2 (Homo sapiens, UniProt P05177); experiment: Inhibition of recombinant human CYP1A2; type: ADME
T2 sequence (P05177 whole entry): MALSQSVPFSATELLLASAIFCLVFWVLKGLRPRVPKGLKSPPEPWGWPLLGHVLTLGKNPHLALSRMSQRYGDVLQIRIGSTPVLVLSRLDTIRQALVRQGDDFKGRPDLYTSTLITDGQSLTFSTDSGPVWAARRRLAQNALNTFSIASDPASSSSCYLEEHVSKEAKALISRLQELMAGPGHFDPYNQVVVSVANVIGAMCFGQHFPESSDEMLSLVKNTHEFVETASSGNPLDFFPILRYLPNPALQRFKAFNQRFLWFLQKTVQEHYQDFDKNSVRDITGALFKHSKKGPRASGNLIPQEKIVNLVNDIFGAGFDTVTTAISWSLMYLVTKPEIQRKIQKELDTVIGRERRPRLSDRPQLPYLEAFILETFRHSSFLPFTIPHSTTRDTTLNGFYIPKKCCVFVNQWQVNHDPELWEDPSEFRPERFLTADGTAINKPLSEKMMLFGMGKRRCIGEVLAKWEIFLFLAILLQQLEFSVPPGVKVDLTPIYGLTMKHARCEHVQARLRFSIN

Cytochrome P450 2C9 = Cytochrome P450 2C9 (Homo sapiens, UniProt P11712); experiment: Inhibition of recombinant human CYP2C9; type: ADME
Sequence of Cytochrome P450 2C9 (P11712 whole entry): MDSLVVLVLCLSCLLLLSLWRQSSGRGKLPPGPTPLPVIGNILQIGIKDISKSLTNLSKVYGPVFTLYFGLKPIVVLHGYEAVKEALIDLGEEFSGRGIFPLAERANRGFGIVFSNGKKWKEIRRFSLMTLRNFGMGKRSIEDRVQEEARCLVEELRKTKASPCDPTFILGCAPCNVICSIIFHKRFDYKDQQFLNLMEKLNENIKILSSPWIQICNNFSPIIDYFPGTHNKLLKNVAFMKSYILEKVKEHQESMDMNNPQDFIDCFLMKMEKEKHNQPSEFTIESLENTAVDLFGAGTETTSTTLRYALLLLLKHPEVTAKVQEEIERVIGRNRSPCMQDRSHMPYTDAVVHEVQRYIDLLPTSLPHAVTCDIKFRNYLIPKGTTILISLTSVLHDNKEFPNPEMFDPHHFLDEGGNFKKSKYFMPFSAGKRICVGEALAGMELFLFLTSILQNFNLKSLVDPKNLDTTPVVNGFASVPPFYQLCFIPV

[15] = Half-life in cynomolgus monkey at 1 mg/kg, iv; type: ADME, organism-based, Macaca fascicularis; details: in vivo
[16] = target: T3, Steroid 17-alpha-hydroxylase/17,20 lyase (Homo sapiens, UniProt P05093); experiment: Inhibition of human CYP17A1; type: ADME
T3 sequence (P05093 whole entry): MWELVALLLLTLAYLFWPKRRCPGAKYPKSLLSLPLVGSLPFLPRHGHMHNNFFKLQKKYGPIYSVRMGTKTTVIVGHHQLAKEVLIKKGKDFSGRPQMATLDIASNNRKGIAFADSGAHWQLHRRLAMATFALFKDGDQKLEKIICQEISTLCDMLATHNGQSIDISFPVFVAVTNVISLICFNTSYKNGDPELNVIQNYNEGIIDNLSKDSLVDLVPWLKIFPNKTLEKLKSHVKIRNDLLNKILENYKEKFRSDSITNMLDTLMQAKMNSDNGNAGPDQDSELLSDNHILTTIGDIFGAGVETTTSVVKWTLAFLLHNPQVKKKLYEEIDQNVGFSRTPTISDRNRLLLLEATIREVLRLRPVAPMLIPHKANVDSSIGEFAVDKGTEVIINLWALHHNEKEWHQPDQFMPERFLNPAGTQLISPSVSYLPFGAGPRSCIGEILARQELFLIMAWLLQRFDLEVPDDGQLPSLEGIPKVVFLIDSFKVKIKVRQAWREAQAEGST

[17] = target: T3, Steroid 17-alpha-hydroxylase/17,20 lyase; experiment: Inhibition of human CYP17A1 lyase activity; type: ADME
[18] = target: T1, Steroid 17-alpha-hydroxylase/17,20 lyase; experiment: In vivo inhibition of CYP17A1 in cynomolgus monkey assessed as fold increase in hydroxyprogesterone level in blood at 1 mg/kg, po measured upto 24 hrs; type: functional, organism-based
[19] = target: T1, Steroid 17-alpha-hydroxylase/17,20 lyase; experiment: Inhibition of cynomolgus monkey CYP17A1 lyase activity; type: ADME
[20] = target: T1, Steroid 17-alpha-hydroxylase/17,20 lyase; experiment: Inhibition of cynomolgus monkey adrenal gland CYP17A1; type: ADME, tissue-based
[21] = Tmax in cynomolgus monkey at 1 mg/kg, po; type: ADME, organism-based, Macaca fascicularis; details: in vivo
[22] = Metabolic stability in rat liver microsome assessed as half-life; type: ADME; details: liver microsomes
[23] = AUC in cynomolgus monkey at 1 mg/kg, po; type: ADME, organism-based, Macaca fascicularis; set-up: dose 1 mg/kg, route po; details: in vivo
[24] = Permeability across apical to basolateral side in human Caco-2 cells; type: ADME, cell-based; details: read-out: permeability
[25] = Metabolic stability in dog liver microsomes assessed as parent compound remaining relative to control; type: ADME, Canis lupus familiaris, Microsome
[26] = target: T1, Steroid 17-alpha-hydroxylase/17,20 lyase; experiment: In vivo inhibition of CYP17A1 in cynomolgus monkey assessed as change in cortisol level in blood at 1 mg/kg, po measured upto 24 hrs; type: functional, organism-based
[27] = target: T3, Steroid 17-alpha-hydroxylase/17,20 lyase; experiment: Selectivity ratio for inhibition of human CYP17A1 hydroxylase activity to inhibition of human CYP17A1 lyase activity; type: ADME
[28] = target: T1, Steroid 17-alpha-hydroxylase/17,20 lyase; experiment: In vivo inhibition of CYP17A1 in cynomolgus monkey assessed as fold increase in progesterone level in blood at 1 mg/kg, po measured upto 24 hrs; type: functional, organism-based
Cytochrome P450 3A4 = Cytochrome P450 3A4 (Homo sapiens, UniProt P08684); experiment: Inhibition of recombinant human CYP3A4; type: ADME
Sequence of Cytochrome P450 3A4 (P08684 whole entry): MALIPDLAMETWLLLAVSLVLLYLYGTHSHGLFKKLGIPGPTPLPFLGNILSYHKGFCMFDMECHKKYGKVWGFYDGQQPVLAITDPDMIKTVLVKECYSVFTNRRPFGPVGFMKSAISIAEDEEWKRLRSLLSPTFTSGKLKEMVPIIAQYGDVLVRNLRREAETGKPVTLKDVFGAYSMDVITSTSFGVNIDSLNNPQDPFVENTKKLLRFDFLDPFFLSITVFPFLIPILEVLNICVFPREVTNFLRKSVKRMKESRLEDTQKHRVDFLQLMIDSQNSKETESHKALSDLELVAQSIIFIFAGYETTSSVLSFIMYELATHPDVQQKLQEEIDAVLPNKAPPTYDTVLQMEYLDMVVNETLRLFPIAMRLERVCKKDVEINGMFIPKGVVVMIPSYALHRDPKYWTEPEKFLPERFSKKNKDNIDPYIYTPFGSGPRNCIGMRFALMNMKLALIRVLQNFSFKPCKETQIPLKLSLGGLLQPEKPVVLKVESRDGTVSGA

half-life [1]: > 2 h | Activity [2]: 83% | IC50 [3]: 30 nM | clearance [4]: 2.8 mL/min/kg | half-life [5]: 0.767 h | bioavailability [6]: 100% | IC50 [7]: > 10000 nM | IC50 [8]: > 10000 nM | half-life [10]: 0.583 h | Vd [11]: 3.5 L/kg | IC50 (Cytochrome P450 2C19): > 40000 nM | Stability [12]: 96% | Stability [13]: 85% | Cmax [14]: 1550 nM | IC50 (Cytochrome P450 1A2): > 40000 nM | IC50 (Cytochrome P450 2C9): > 40000 nM | half-life [15]: 16 h | IC50 [16]: 16 nM | IC50 [17]: 8 nM | fold change (FC) [18]: 14 | IC50 [19]: 6 nM | IC50 [20]: 2 nM | Tmax [21]: 1 h | half-life [22]: 1.2 h | AUC [23]: 26 µM·h | Papp A→B [24]: 28.2 ×10⁻⁶ cm/s | Stability [25]: 86% | inhibition (INH) [26]: Not Active | fold change (FC) [28]: 14 | IC50 (Cytochrome P450 3A4): 36000 nM
Structure (SMILES): Nc1ncncc1-c1ccnc2c1cnn2-c1ccc(F)cc1
Ratio IC50 [9]: 5 | Ratio [27]: 11
